Measurements published in US12655150B2 (Cedilla Therapeutics, Inc., priority 2021, dated 2026).

Tested on: NCI-H226
Assay: 72H TEAD Proliferation Assay (Cell Titer Glo 2.0)
Format: cell-based
Conditions: CTG 2.0, cell line not given (NCI-H226 responsive, NCI-H28 non-responsive)
Description: 72H TEAD Proliferation Assay.
The effect of TEAD inhibition on cell proliferation was assayed using Cell Titer Glo (CTG) 2.0 to measure response in mesothelioma cell lines NCI-H226 (ATCC, #CRL-5826) and NCI-H28 (ATCC, #CRL-5820).
The 72H TEAD Proliferation assay utilizes Cell Titer-Glo 2.0 (Promega, #G9243) to measure the proliferation of cells in the presence or absence of compound. Cell Titer-Glo 2.0 determines the amount of viable cells by quantifying ATP (an indication of metabolically active cells). It utilizes the conversion of Luciferin to Oxyluciferin and a luminescent signal with the use of ATP to report the quantity of viable cells in culture. Within cells that are continually growing, ATP is being synthesized to meet their metabolic demands, meanwhile the opposite is true for cells that are dying or slowing down their proliferation and either no longer using ATP or are using less, respectively. The NF2-deficient NCI-H226 has been genetically validated as a cell line that is sensitive to TEAD inhibition. The NF2-wild type NCI-H28 has been genetically validated as a cell line that is not sensitive to TEAD inhibition and grows independently of TEAD activity.
Compounds were screened against the responsive NCI-H226 cell line to assess the compounds' ability to inhibit TEAD and cell growth. Compounds were also screened against the non-responsive NCI-H28 cell line to ascertain whether the inhibition of cell growth was due to inhibition of the target TEAD or whether the inhibition was due to off-target cytotoxicity.
• 1) Assay ready plates (ARPs) were prepared by Echo acoustic liquid handler. […] After CTG addition, plates were placed on shaker at 800 RPM for 15 minutes at room temperature and kept in the dark. Luminescence was measured using EnVision multilabel plate reader with ultra-sensitive detection module. • 9) Data Analysis: First background luminescence (no CTG wells) was subtracted from luminescence reading of all wells, then TO luminescence was subtracted from T72 luminescence. To compare anti-proliferative effect of compounds, GI50 was obtained by fitting dose response curves with nonlinear regression curve fit.

| GI50 (Homo sapiens, NCI-H226, 72 h) [µM] | GI50 [µM] | SMILES |
| --- | --- | --- |
| > 10 | – | O=C(O)c1ccc2c(c1)nc(-c1ccc(C3(C(F)(F)F)CC3)cc1)c1nccn12 [I-67, 4-(4-(1-(Trifluoromethyl)cyclopropyl)phenyl)imidazo[1,2-a]quinoxaline-7-carboxylic acid] |
| > 10 | – | O=C(O)c1ccc2c(c1)nc(N1CCC(F)(F)C1)c1cccn12 [I-11, 4-(3,3-Difluoropyrrolidin-1-yl)pyrrolo[1,2-a]quinoxaline-7-carboxylic acid] |
| ≤ 1 | – | C=CC(=O)Nc1ccc2c(c1)nc(-c1ccc(C(F)(F)F)cn1)c1cccn12 [I-202, N-(4-(5-(trifluoromethyl)pyridin-2-yl)pyrrolo[1,2-a]quinoxalin-7-yl)acrylamide] |
| ≤ 1 | – | C=CC(=O)NCc1cn2cc(C)nc2c(-c2ccc(C(F)(F)F)cc2)n1 [I-241, N-((2-methyl-8-(4-(trifluoromethyl)phenyl)imidazo[1,2-a]pyrazin-6-yl)methyl)acrylamide] |
| ≤ 1 | – | COc1cc(-c2ccc(C(F)(F)F)cc2)nc2cc(C(=O)N[C@@H](CO)c3ccncc3)ccc12 [I-366, (R)—N-(2-hydroxy-1-(pyridin-4-yl)ethyl)-4-methoxy-2-(4-(trifluoromethyl)phenyl)quinoline-7-carboxamide] |
| ≤ 1 | – | O=C(O)c1ccc2c(c1)nc(Oc1ccc(C(F)(F)F)cc1)c1cccn12 [I-23, 4-(4-(Trifluoromethyl)phenoxy) pyrrolo[1,2-a] quinoxaline-7-carboxylic acid] |
| ≤ 1 | – | C=CC(=O)NCc1cn2ccnc2c(-c2ccc(C(C)(C)C)cc2)n1 [I-140, N-((8-(4-(tert-butyl)phenyl)imidazo[1,2-a]pyrazin-6-yl)methyl)acrylamide] |
| ≤ 1 | – | O=C(N[C@@H](CO)c1ccccc1)c1ccc2ccc(-c3ccc(C(F)(F)F)cc3)nc2c1 [I-428, (R)—N-(2-hydroxy-1-phenylethyl)-2-(4-(trifluoromethyl)phenyl)quinoline-7-carboxamide] |
| ≤ 1 | – | O=C(O)c1ccc2c(-c3cnco3)cc(-c3ccc(C(F)(F)F)cc3)nc2c1 [I-389, 4-(oxazol-5-yl)-2-(4-(trifluoromethyl)phenyl)quinoline-7-carboxylic acid] |
| 1 to 5 | – | O=C(O)c1ccc2c(c1)nc(-c1cnc(C(F)(F)F)cn1)c1cccn12 [I-198, 4-(5-(trifluoromethyl)pyrazin-2-yl)pyrrolo[1,2-a]quinoxaline-7-carboxylic acid] |
| 1 to 5 | – | COC[C@H](C)NC(=O)c1cnc2c(N3CCC(CC(F)(F)F)CC3)cc(OC)cc2c1 [I-253, (S)-6-methoxy-N-(1-methoxypropan-2-yl)-8-(4-(2,2,2-trifluoroethyl)piperidin-1-yl)quinoline-3-carboxamide] |
| 1 to 5 | – | CC(C)c1cc(-c2ccc(C(F)(F)F)cc2)nc2cc(C(=O)N[C@H](C)CO)ccc12 [I-426, (R)—N-(1-hydroxypropan-2-yl)-4-isopropyl-2-(4-(trifluoromethyl)phenyl)quinoline-7-carboxamide] |
| ≤ 1 | – | COc1cc(-c2ccc(C(F)(F)F)cc2)nc2cc(S(C)(=O)=O)ccc12 [I-415, 4-methoxy-7-(methylsulfonyl)-2-(4-(trifluoromethyl)phenyl)quinoline] |
| 1 to 5 | – | Cc1cc(C(=O)O)cc2nc(-c3ccc(C(C)(C)C)cc3)c3cccn3c12 [I-321, 4-(4-(Tert-butyl)phenyl)-9-methylpyrrolo[1,2-a]quinoxaline-7-carboxylic acid] |
| ≤ 1 | – | C=CC(=O)NCc1cn2ccnc2c(-c2ccc(C(F)(F)F)cc2F)n1 [I-175, N-((8-(2-Fluoro-4-(trifluoromethyl)phenyl)imidazo[1,2-a]pyrazin-6-yl)methyl)acrylamide] |
| 1 to 5 | – | CC1(C)CCN(c2nc3cc(C(=O)O)ccc3n3cccc23)CC1 [I-3, 4-(4,4-Dimethylpiperidin-1-yl)pyrrolo[1,2-a]quinoxaline-7-carboxylic acid] |
| ≤ 1 | – | C=CC(=O)NCc1cn2cccc2c(-c2ccc(C(F)(F)F)cn2)n1 [I-314, N-((1-(5-(Trifluoromethyl)pyridin-2-yl)pyrrolo[1,2-a]pyrazin-3-yl)methyl)acrylamide] |
| ≤ 1 | – | CC[C@H](CO)NC(=O)c1ccc2c(C3CC3)cc(-c3ccc(C(F)(F)F)cc3)nc2c1 [I-399, (R)-4-cyclopropyl-N-(1-hydroxybutan-2-yl)-2-(4-(trifluoromethyl)phenyl)quinoline-7-carboxamide] |
| ≤ 1 | – | C=CC(=O)Nc1ccc2c(c1)nc(-c1ccc(C(F)(F)F)cc1)c1cccn12 [I-120, N-(4-(4-(trifluoromethyl)phenyl)pyrrolo[1,2-a]quinoxalin-7-yl)acrylamide] |

| GI50 (Homo sapiens, NCI-H226, 72 h) [µM] | GI50 [µM] | SMILES |
| --- | --- | --- |
| ≤ 1 | – | C=CC(=O)NCc1cc2ccccc2c(-c2ccc(C(F)(F)F)nc2)n1 [I-302, N-((1-(6-(trifluoromethyl)pyridin-3-yl)isoquinolin-3-yl)methyl)acrylamide] |
| 1 to 5 | – | CC1CCN(c2nc3cc(C(=O)O)ccc3n3cccc23)CC1 [I-16, 4-(4-Methylpiperidin-1-yl)pyrrolo[1,2-a]quinoxaline-7-carboxylic acid] |
| ≤ 1 | – | O=C(O)c1ccc2c(c1)nc(-c1ccc(C(F)(F)F)cc1)c1c(F)ccn12 [I-280, 3-fluoro-4-(4-(trifluoromethyl)phenyl)pyrrolo[1,2-a]quinoxaline-7-carboxylic acid] |
| > 10 | – | CC(C)(C)c1ccc(-c2cncc3c(C(=O)O)c[nH]c23)cc1 [I-97, 7-(4-(tert-Butyl)phenyl)-1H-pyrrolo[3,2-c] pyridine-3-carboxylic acid] |
| ≤ 1 | – | O=C(O)c1ccc2c(c1)nc(-c1ccc(C(F)(F)F)cc1)c1cccn12 [I-42, 4-(4-(Trifluoromethyl)phenyl)pyrrolo[1,2-a]quinoxaline-7-carboxylic acid] |
| 1 to 5 | – | O=C(O)c1ccc2c(c1)nc(N1CCC(C(F)F)CC1)c1cccn12 [I-17, 4-(4-(Difluoromethyl)piperidin-1-yl)pyrrolo[1,2-a]quinoxaline-7-carboxylic acid] |
| 1 to 5 | – | CC(C)(C)c1ccc(-c2nc3cc(C(=O)O)ccc3n3cc(SC(F)(F)F)cc23)cc1 [I-411, 4-(4-(tert-Butyl)phenyl)-2-((trifluoromethyl)thio)pyrrolo[1,2-a]quinoxaline-7-carboxylic acid] |
| 1 to 5 | – | COc1cc(-c2ccc(C(F)(F)F)cc2)nc2cc(NS(C)(=O)=O)ccc12 [I-383, N-(4-methoxy-2-(4-(trifluoromethyl)phenyl)quinolin-7-yl)methanesulfonamide] |
| 1 to 5 | – | O=C(O)c1cnc2c(c1)nc(N1CCC3(CC1)CC3)c1cccn12 [I-138, 6-(6-Azaspiro[2.5]octan-6-yl)pyrido[3,2-e]pyrrolo[1,2-a]pyrazine-3-carboxylic acid] |
| > 10 | – | CC(C)(C)c1ccc(-c2cnc3ccc(C#N)cc3n2)cc1 [I-159, 3-(4-(tert-butyl)phenyl)quinoxaline-6-carbonitrile] |
| 1 to 5 | – | C=CS(=O)(=O)NCc1cn2ccnc2c(-c2ccc(C(C)(C)C)cc2)n1 [I-141, N-((8-(4-(tert-Butyl)phenyl)imidazo[1,2-a]pyrazin-6-yl)methyl)ethenesulfonamide] |
| ≤ 1 | – | COc1cc(-c2ccc(C(F)(F)F)cc2)nc2cc(C(=O)N[C@@H](CO)C3CC3)ccc12 [I-344, (R)—N-(1-cyclopropyl-2-hydroxyethyl)-4-methoxy-2-(4-(trifluoromethyl)phenyl)quinoline-7-carboxamide] |
| ≤ 1 | – | C=CC(=O)NCc1cn2ccnc2c(Oc2ccc(C(F)(F)F)cc2)n1 [I-174, N-((8-(4-(trifluoromethyl)phenoxy)imidazo[1,2-a]pyrazin-6-yl)methyl)acrylamide] |
| 5 to 10 | – | CC(C)(C)c1ccc(-c2nc3cc(C(=O)O)cc(F)c3n3ccnc23)cc1 [I-72, 4-(4-(tert-Butyl)phenyl)-9-fluoroimidazo[1,2-a]quinoxaline-7-carboxylic acid] |
| – | 5 to 10 | CC(C)(C)c1ccc(-c2nc3cc(S(C)(=N)=O)ccc3n3cccc23)cc1 (single isomer, unassigned) [I-209, (4-(4-(tert-Butyl)phenyl)pyrrolo[1,2-a]quinoxalin-7-yl)(imino)(methyl)-16-sulfanone] |
| 1 to 5 | – | Cc1cc(-c2ccc(C(C)(C)C)cc2)nc2cc(C(=O)O)ccc12 [I-88, 2-(4-(tert-Butyl)phenyl)-4-methylquinoline-7-carboxylic acid] |
| 1 to 5 | – | CS(=O)(=O)NCc1cn2cccc2c(-c2ccc(C(F)(F)F)cc2)n1 [I-320, N-((1-(4-(trifluoromethyl)phenyl)pyrrolo[1,2-a]pyrazin-3-yl)methyl)methanesulfonamide] |
| 1 to 5 | – | Cc1cc2c(-c3ccc(C(C)(C)C)cc3)nc3cc(C(=O)O)ccc3n2c1 [I-83, 4-(4-(tert-Butyl)phenyl)-2-methylpyrrolo[1,2-a]quinoxaline-7-carboxylic acid] |
